Measured values reported in patent US20220175760A1, “PHARMACEUTICAL FORMULATIONS” (Janssen Pharmaceutica NV, priority 2019, published 2022).
≈ marks a conversion by molar mass, not a printed value.

Key:
[1] = Solubility of Compound A in FaSSIF; type: physicochemical; conditions: 37 °C
Protocol: (§1) A 1% solution of PVPVA64 in FaSSIF was prepared by weighing 2.5 g of PVPVA64 in a volumetric flask and dissolving it in 250 mL FaSSIF at 37° C. The complete volume of the volumetric flask was transferred to a suitable Duran bottle. Afterwards, a highly concentrated solution of Compound A monohydrate (obtained according to Example 1) in NMP was prepared (175 mg/mL). At time zero, 679 μL of the highly concentrated Compound A solution (175 mg/mL) was added to the Duran bottle containing 250 mL FaSSIF+1% PVPVA64 (w/v). The added volume Compound A solution was chosen to obtain a theoretical final concentration of 475.5 μg/mL. This concentration results in a suitable degree of supersaturation of Compound A.

[2] = Crystallisation inhibition: XRPD of the precipitate from a supersaturated solution in FaSSIF + 1% PVPVA64; type: physicochemical; conditions: Compound A monohydrate in NMP (175 mg/mL) added to FaSSIF + 1% PVPVA64, 475.5 μg/mL (DS 16), 37° C., 2 hours, 300 rpm
Protocol: as §1
A precipitate formed immediately after adding the highly concentrated solution. The mixture was equilibrated at 37° C. for 2 hours while stirring at 300 rpm. After 2 hours, the precipitate was separated from the liquid phase by vacuum filtration. The precipitate was then analyzed with Powder X-Ray Diffraction to check if the API present in the formed precipitate was present as an amorphous or a crystalline form.
X-ray powder diffraction (XRPD) analysis was carried out on a PANalytical (Philips) X'PertPRO MPD diffractometer. The instrument is equipped with a Cu LFF X-ray tube. The compound was spread on a zero-background sample holder

For O=C(Nc1ccnc(C(F)(F)F)c1)c1cnn(-c2cccc3c(=O)[nH]ccc23)c1C(F)(F)F [Compound A, 1-(1-oxo-1,2-dihydroisoquinolin-5-yl)-5-(trifluoromethyl)-N-(2-(trifluoromethyl)pyridin-4-yl)-1H-pyrazole-4-carboxamide], the solubility [1] was 29.7 µg/mL (≈ 63.6 µM) and the “Form of the precipitate (amorphous or crystalline) by XRPD” value [2] was “amorphous precipitate”.
